# According to patent publication US10500166B2, “Methods for the treatment of erectile dysfunction using fispemifene” (QUATRX PHARMACEUTICALS, priority 2007, dated 2019):
# Assays:
# [1] = test system: FSH (follicle stimulating hormone); assay: Example 3 study in hypogonadal men: serum FSH (ITT); type: in vivo, human; conditions: for FSH % Change from Baseline to Week 2, Max / FSH % Change from Baseline to Week 2, Mean ± SD / FSH % Change from Baseline to Week 2, Median / FSH % Change from Baseline to Week 2, Min / FSH % Change from Baseline to Week 4, Max / FSH % Change from Baseline to Week 4, Mean ± SD / FSH % Change from Baseline to Week 4, Median / FSH % Change from Baseline to Week 4, Min / FSH % Change from Baseline to Week 6, Max / FSH % Change from Baseline to Week 6, Mean ± SD / FSH % Change from Baseline to Week 6, Median / FSH % Change from Baseline to Week 6, Min: (Week minus Baseline) divided by Baseline, LOCF; for FSH % Change from Baseline to Week 2, Max / FSH % Change from Baseline to Week 2, Mean ± SD / FSH % Change from Baseline to Week 2, Median / FSH % Change from Baseline to Week 2, Min / FSH % Change from Baseline to Week 4, Max / FSH % Change from Baseline to Week 4, Mean ± SD / FSH % Change from Baseline to Week 4, Median / FSH % Change from Baseline to Week 4, Min / FSH % Change from Baseline to Week 6, Max / FSH % Change from Baseline to Week 6, Mean ± SD / FSH % Change from Baseline to Week 6, Median / FSH % Change from Baseline to Week 6, Min / FSH Actual Value at Baseline (Visit 2), Max / FSH Actual Value at Baseline (Visit 2), Mean ± SD / FSH Actual Value at Baseline (Visit 2), Median / FSH Actual Value at Baseline (Visit 2), Min: ITT
# Method: (§1) A randomized, double-blind, placebo controlled, parallel-group study of once-daily doses of fispemifene (100, 200, and 300 mg/day) given for 4 weeks was conducted in a population of hypogonadal men. Subjects were required to meet all of the following inclusion criteria at screening and prior to randomization to be eligible for the study:
# (§2) There were 77 subjects total. The number of subjects randomized to the 100 mg fispemifene, 200 mg fispemifene, 300 mg fispemifene, and placebo arms were 21, 21, 19, and 16, respectively.
# (§3) Subjects were randomly assigned to one of four treatment groups in a 1:1:1:1 ratio: • Treatment A (100 mg): fispemifene 100 mg+placebo+placebo; • Treatment B (200 mg): fispemifene 100 mg+fispemifene 100 mg+placebo; • Treatment C (300 mg): fispemifene 100 mg+fispemifene 100 mg+fispemifene 100 mg; and • Treatment D (Placebo): placebo+placebo+placebo.
# (§4) Subjects took one dose (three capsules) of study medication once a day at home for 4 weeks. Capsules were to be taken in the morning immediately after breakfast, with the exception of the morning of the Week 4 visit. Capsules were not to be taken on the morning of the Week 4 visit because trough plasma levels of fispemifene were determined by a blood sample taken at this visit. Each subject was randomly assigned to treatment with one of the 3 different dose regimens of fispemifene or placebo vehicle. Each subject received a 4 week supply of study drug.
# (§5) Blood samples were taken from the subjects within 1 week prior to dosing with study drug to establish baseline values; after 2 and 4 weeks of randomization; and 2 weeks after the last dose of study drug. Serum was prepared from those samples and used to determine the mean % change from baseline in total testosterone, free testosterone, SHBG (sex hormone-binding globulin), DHT (dihydrotestosterone), E2 (estradiol), LH (luteinizing hormone), FSH (follicle stimulating hormone), and inhibin B.
# (§6) 3. Percent change from baseline in SHBG, DHT, E2, LH, FSH, inhibin B, and testosterone/E2 ratio at Weeks 2, 4, and 6.
# LH (luteinizing hormone) = assay: Example 3 study in hypogonadal men: serum LH (ITT); type: in vivo, human; conditions: 100 mg/day, Baseline (Visit 2)
# Method: as §1, §2, §3, §4, §5, §6
structure (smiles),measurement,setting,value
"OCCOCCOc1ccc(/C(=C(/CCCl)c2ccccc2)c2ccccc2)cc1 [Fispemifene, (Z)-2-{2-[4-(4-Chloro-1,2-diphenylbut-1-enyl)phenoxy]ethoxy}ethanol]","FSH % Change from Baseline to Week 2, Max",[1]; 100 mg,0.76
same,"FSH % Change from Baseline to Week 2, Mean ± SD",[1]; 100 mg,0.29 ± 0.222
same,"FSH % Change from Baseline to Week 2, Median",[1]; 100 mg,0.27
same,"FSH % Change from Baseline to Week 2, Min",[1]; 100 mg,−0.13
same,"FSH % Change from Baseline to Week 4, Max",[1]; 100 mg,1.12
same,"FSH % Change from Baseline to Week 4, Mean ± SD",[1]; 100 mg,0.28 ± 0.296
same,"FSH % Change from Baseline to Week 4, Median",[1]; 100 mg,0.24
same,"FSH % Change from Baseline to Week 4, Min",[1]; 100 mg,−0.09
same,"FSH % Change from Baseline to Week 6, Max",[1]; 100 mg,0.610
same,"FSH % Change from Baseline to Week 6, Mean ± SD",[1]; 100 mg,0.043 ± 0.2302
same,"FSH % Change from Baseline to Week 6, Median",[1]; 100 mg,0.000
same,"FSH % Change from Baseline to Week 6, Min",[1]; 100 mg,−0.345
same,"FSH Actual Value at Baseline (Visit 2), Max",[1]; 100 mg,14.90 IU/L
same,"FSH Actual Value at Baseline (Visit 2), Mean ± SD",[1]; 100 mg,649 ± 3.738 IU/L
same,"FSH Actual Value at Baseline (Visit 2), Median",[1]; 100 mg,5.00 IU/L
same,"FSH % Change from Baseline to Week 2, Max",[1]; 200 mg,0.60
same,"FSH % Change from Baseline to Week 2, Mean ± SD",[1]; 200 mg,0.33 ± 0.147
same,"FSH % Change from Baseline to Week 2, Median",[1]; 200 mg,0.28
same,"FSH % Change from Baseline to Week 2, Min",[1]; 200 mg,0.03
same,"FSH % Change from Baseline to Week 4, Max",[1]; 200 mg,0.58
same,"FSH % Change from Baseline to Week 4, Mean ± SD",[1]; 200 mg,0.32 ± 0.157
same,"FSH % Change from Baseline to Week 4, Median",[1]; 200 mg,0.33
same,"FSH % Change from Baseline to Week 4, Min",[1]; 200 mg,0.02
same,"FSH % Change from Baseline to Week 6, Max",[1]; 200 mg,0.442
same,"FSH % Change from Baseline to Week 6, Mean ± SD",[1]; 200 mg,0.050 ± 0.1657
same,"FSH % Change from Baseline to Week 6, Median",[1]; 200 mg,0.022
same,"FSH % Change from Baseline to Week 6, Min",[1]; 200 mg,−0.167
same,"FSH Actual Value at Baseline (Visit 2), Max",[1]; 200 mg,14.20 IU/L
same,"FSH Actual Value at Baseline (Visit 2), Mean ± SD",[1]; 200 mg,5.91 ± 3.054 IU/L
same,"FSH Actual Value at Baseline (Visit 2), Median",[1]; 200 mg,5.20 IU/L
same,"FSH Actual Value at Baseline (Visit 2), Min",[1]; 200 mg,2.40 IU/L
same,"FSH % Change from Baseline to Week 2, Max",[1]; 300 mg,0.78
same,"FSH % Change from Baseline to Week 2, Mean ± SD",[1]; 300 mg,0.36 ± 0.233
same,"FSH % Change from Baseline to Week 2, Median",[1]; 300 mg,0.31
same,"FSH % Change from Baseline to Week 2, Min",[1]; 300 mg,−0.21
same,"FSH % Change from Baseline to Week 4, Max",[1]; 300 mg,0.60
same,"FSH % Change from Baseline to Week 4, Mean ± SD",[1]; 300 mg,0.29 ± 0.206
same,"FSH % Change from Baseline to Week 4, Median",[1]; 300 mg,0.28
same,"FSH % Change from Baseline to Week 4, Min",[1]; 300 mg,−0.24
same,"FSH % Change from Baseline to Week 6, Max",[1]; 300 mg,0.395
same,"FSH % Change from Baseline to Week 6, Mean ± SD",[1]; 300 mg,−0.010 ± 0.1786
same,"FSH % Change from Baseline to Week 6, Median",[1]; 300 mg,−0.043
same,"FSH % Change from Baseline to Week 6, Min",[1]; 300 mg,−0.255
same,"FSH Actual Value at Baseline (Visit 2), Max",[1]; 300 mg,12.30 IU/L
same,"FSH Actual Value at Baseline (Visit 2), Mean ± SD",[1]; 300 mg,5.08 ± 2.931 IU/L
same,"FSH Actual Value at Baseline (Visit 2), Median",[1]; 300 mg,4.10 IU/L
same,"FSH Actual Value at Baseline (Visit 2), Min",[1]; 300 mg,1.80 IU/L
same,effect on serum FSH levels,"[1]; hypogonadal men, 100-300 mg/day for 4 weeks",increased
same,"LH, Max",LH (luteinizing hormone),13.50 IU/L
same,"LH, Mean ± SD",LH (luteinizing hormone),4.43 ± 2.438 IU/L
